This passage reports Ki results from ChEMBL document CHEMBL1130909, “General construction pattern of histamine H3-receptor antagonists: change of a paradigm” (Bioorg Med Chem Lett, 1998).

Molecules are shown by their SMILES.

For the experiment, the target named is Histamine H3 receptor (Rattus norvegicus, UniProt Q9QYN8). Kind of experiment: In vitro Histamine H3 receptor antagonist activity in an assay with K+-evoked depolarization-induced release of [3H]histamine from synaptosomes of rat cerebral cortex. Format: functional, subcellular, Brain.
Sequence of Histamine H3 receptor (Q9QYN8 whole entry): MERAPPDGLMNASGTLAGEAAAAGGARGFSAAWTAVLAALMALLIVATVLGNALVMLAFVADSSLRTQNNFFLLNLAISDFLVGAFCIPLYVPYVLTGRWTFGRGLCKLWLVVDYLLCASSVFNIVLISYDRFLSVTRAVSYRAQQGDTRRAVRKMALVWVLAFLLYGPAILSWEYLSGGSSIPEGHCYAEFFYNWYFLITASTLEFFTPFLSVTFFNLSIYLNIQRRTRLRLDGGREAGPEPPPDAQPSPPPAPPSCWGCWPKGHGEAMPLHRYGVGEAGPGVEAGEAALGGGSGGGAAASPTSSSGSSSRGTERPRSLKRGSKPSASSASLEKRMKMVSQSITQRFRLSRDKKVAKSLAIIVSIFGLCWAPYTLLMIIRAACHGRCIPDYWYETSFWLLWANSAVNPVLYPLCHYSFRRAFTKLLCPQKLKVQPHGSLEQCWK
As to `C(=C\CCc1c[nH]cn1)/CCc1ccccc1`, the inhibition constant Ki (in general, a dissociation constant, usually derived from enzyme kinetics or from competition with a known ligand) was determined as 42 nM.

For `CCCCCCCCCc1c[nH]cn1`, the Ki was determined as 400 nM.

In the case of `CCCCCCC/C=C\c1c[nH]cn1`, the Ki was over 500 nM.
